Key:
[1] = Cytotoxicity against human MT4 cells expressing CD4 and CXCR4 assessed as cell viability; assay type: cell-based
[2] = tested on: Human immunodeficiency virus 1; assay: Antiviral activity against X4 tropic HIV1 NL4.3 infected in CD4 and CXCR4 expressing human MT4 cells assessed as inhibition of viral cytopathicity; assay type: functional, organism-based; conditions: Human immunodeficiency virus 1, NL4.3, MT4
[3] = AUC (0 to infinity) in dog; assay type: ADME, organism-based, Canis lupus familiaris; design: time infinity; concentration or dose not given beside the values; conditions: plasma
[4] = Cmax in rat; assay type: ADME, organism-based; conditions: in vivo
[5] = tested on: Human immunodeficiency virus 1; assay: Antiviral activity against X4 tropic HIV1 NL4.3 infected in human PBMC assessed as inhibition of viral cytopathicity; assay type: functional, organism-based; conditions: Human immunodeficiency virus 1, NL4.3
[6] = tested on: Human immunodeficiency virus 1; assay: Antiviral activity against X4 tropic HIV1 NL4.3 infected in human PBMC assessed as inhibition of viral cytopathicity in presence of 1 mg/ml of alpha-acid glycoprotein; assay type: functional
[7] = Cmax in dog; assay type: ADME, organism-based, Canis lupus familiaris; conditions: in vivo
[8] = AUC (0 to infinity) in rat; assay type: ADME, organism-based; design: time infinity; concentration or dose not given beside the values; conditions: plasma
[9] = biological target: T1, C-X-C chemokine receptor type 4 (Homo sapiens, UniProt P61073); assay: Antagonist activity at CXCR4 in human CEM-CCRF cells assessed as inhibition of SDF-1-induced calcium signaling; assay type: functional, cell-based
[10] = Oral bioavailability in dog at 12.5 umol/kg; assay type: ADME, organism-based, Canis lupus familiaris; conditions: in vivo
[11] = Half life in dog at 5 umol/kg, iv; assay type: ADME, organism-based, Canis lupus familiaris; conditions: in vivo
[12] = Clearance in dog at 5 umol/kg, iv; assay type: ADME, organism-based, Canis lupus familiaris; conditions: in vivo
[13] = Volume of distribution at steady state in rat at 10 umol/kg, iv; assay type: ADME, organism-based; conditions: in vivo, read-out: Vdss
[14] = Half life in rat at 10 umol/kg, iv; assay type: ADME, organism-based; conditions: in vivo
[15] = Volume of distribution at steady state in dog at 5 umol/kg, iv; assay type: ADME, organism-based, Canis lupus familiaris; conditions: in vivo, read-out: Vdss
[16] = biological target: T1, C-X-C chemokine receptor type 4; assay: Displacement of [125I]SDF-1alpha from CXCR4 in human CEM-CCRF cells by liquid scintillation counting; assay type: cell-based
[17] = Oral bioavailability in rat at 100 umol/kg, […]; assay type: ADME, organism-based; conditions: in vivo
[18] = Clearance in rat at 10 umol/kg, iv; assay type: ADME, organism-based; conditions: in vivo

T1 sequence (P61073 whole entry): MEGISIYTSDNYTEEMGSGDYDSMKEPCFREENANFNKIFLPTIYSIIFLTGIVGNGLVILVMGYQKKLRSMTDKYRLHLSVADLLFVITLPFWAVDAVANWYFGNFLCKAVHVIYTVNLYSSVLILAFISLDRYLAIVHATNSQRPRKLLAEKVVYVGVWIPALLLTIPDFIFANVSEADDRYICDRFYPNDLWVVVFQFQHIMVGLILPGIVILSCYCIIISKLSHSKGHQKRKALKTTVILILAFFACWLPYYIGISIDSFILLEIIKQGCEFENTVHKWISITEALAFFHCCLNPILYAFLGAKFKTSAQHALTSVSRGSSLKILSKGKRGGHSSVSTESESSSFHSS

## Cc1ccc(C(C)N(CCCCN)Cc2nc3ccccc3[nH]2)nc1 (stereo not given)
[1]
  CC50: > 146000 nM
[2]
  IC50: 3.8 nM

## CCC(c1ccccn1)N(CCCCN)Cc1nc2ccccc2[nH]1 (stereo not given)
[1]
  CC50: > 162000 nM
[2]
  IC50: 874 nM

## Cc1cccc(CN(CCCCN)[C@H]2CCCc3cccnc32)n1
[3]
  AUC(0-inf): 7.75 µM·h
[4]
  Cmax: 1460 nM
[5]
  IC50: 15.8 nM
[6]
  fold change (FC): 0.6
[7]
  Cmax: 2060 nM
[2]
  IC50: 2.4 nM
[8]
  AUC(0-inf): 8.75 µM·h

## NCCCCN(Cc1nc2ccccc2[nH]1)[C@H]1CCCc2cccnc21 [MAVORIXAFOR]
[2]
  IC50: 4.8 nM

## Cc1cnc(CN(CCCCN)C2CCCc3cccnc32)c(C)c1 (racemic)
[9]
  IC50: 19 nM
[1]
  CC50: 32600 nM
[2]
  IC50: 0.63 nM

## Cc1cccc(CN(CCCCN)C2CCCc3cccnc32)n1 (racemic)
[1]
  CC50: 299000 nM
[2]
  IC50: 2.9 nM

## Cc1ccnc(C(C)N(CCCCN)Cc2ncccc2C)c1 (racemic)
[1]
  CC50: 138000 nM
[2]
  IC50: 0.3 nM

## Cc1cccc(CN(CCCCN)C(C)c2ccccn2)n1 (racemic)
[9]
  IC50: 183 nM
[1]
  CC50: > 145000 nM
[2]
  IC50: 15 nM

## NCCCCN(Cc1ccccn1)C1CCCc2cccnc21 (racemic)
[1]
  CC50: 165000 nM
[2]
  IC50: 15.3 nM

## Cc1ccnc(CN(CCCCN)C2CCCc3cccnc32)c1 (racemic)
[1]
  CC50: 36900 nM
[2]
  IC50: 47.8 nM

## Cc1ccc(CN(CCCCN)C(C)c2ccccn2)nc1 (racemic)
[1]
  CC50: 158000 nM
[2]
  IC50: 48.1 nM

## NCCCCN(Cc1nc2ccccc2[nH]1)C(c1ccccc1)c1ccccn1 (stereo not given)
[1]
  CC50: > 148000 nM
[2]
  IC50: 13300 nM

## Cc1ccnc(C(C)N(CCCCN)Cc2nc3ccccc3[nH]2)c1 (stereo not given)
[1]
  CC50: > 142000 nM
[2]
  IC50: 438 nM

## Cc1cnc(CN(CCCCN)C(C)c2ccccn2)c(C)c1 (racemic)
[9]
  IC50: 20 nM
[1]
  CC50: 163000 nM
[2]
  IC50: 1.8 nM

## NCCCCN(Cc1ccccn1)Cc1nc2ccccc2[nH]1
[1]
  CC50: 151000 nM
[2]
  IC50: 41 nM

## CC(c1ccccn1)N(CCCCN)Cc1ncccc1N (racemic)
[9]
  IC50: 72 nM
[1]
  CC50: 167000 nM
[2]
  IC50: 18.4 nM

## Cc1cccc(C(C)N(CCCCN)Cc2nc3ccccc3[nH]2)n1 (stereo not given)
[1]
  CC50: > 167000 nM
[2]
  IC50: 4100 nM

## COCc1cccc(CN(CCCCN)C2CCCc3cccnc32)n1 (racemic)
[1]
  CC50: > 154000 nM
[2]
  IC50: 553 nM

## CC(c1ccccn1)N(CCCCN)Cc1ncccc1C(F)(F)F (racemic)
[9]
  IC50: 111 nM
[1]
  CC50: > 155000 nM
[2]
  IC50: 39.1 nM

## NCCCCN(Cc1cccc(N)n1)C1CCCc2cccnc21 (racemic)
[1]
  CC50: 158000 nM
[2]
  IC50: 30 nM

## CC(c1cccc(N)n1)N(CCCCN)Cc1nc2ccccc2[nH]1 (stereo not given)
[1]
  CC50: > 149000 nM
[2]
  IC50: 2290 nM

## CC(C)C(c1ccccn1)N(CCCCN)Cc1nc2ccccc2[nH]1 (stereo not given)
[1]
  CC50: > 162000 nM
[2]
  IC50: 16300 nM

## Cc1cnc(CN(CCCCN)[C@H]2CCCc3cccnc32)c(C)c1
[10]
  bioavailability: 51%
[3]
  AUC(0-inf): 22.1 µM·h
[4]
  Cmax: 2700 nM
[5]
  IC50: 3.6 nM
[6]
  fold change (FC): 2.8
[11]
  half-life: 39.6 h
[12]
  clearance: 3.3 mL/min/kg
[7]
  Cmax: 7160 nM
[13]
  Vd: 28.5 L/kg
[14]
  half-life: 10.5 h
[15]
  Vd: 8.7 L/kg
[16]
  IC50: 62.9 nM
[2]
  IC50: 7.7 nM
[17]
  bioavailability: 42%
[8]
  AUC(0-inf): 20.7 µM·h
[18]
  clearance: 31.7 mL/min/kg

## CC(C)c1cccnc1CN(CCCCN)C1CCCc2cccnc21 (racemic)
[1]
  CC50: 33800 nM
[2]
  IC50: 8.4 nM

## CC(C)c1cccnc1CN(CCCCN)Cc1nc2ccccc2[nH]1
[1]
  CC50: 145000 nM
[2]
  IC50: 34 nM

## CC(c1ccccn1)N(CCCCN)Cc1nc2ccccc2[nH]1 (stereo not given)
[1]
  CC50: > 161000 nM
[2]
  IC50: 18 nM

## NCCCCN(Cc1ncccc1N)[C@H]1CCCc2cccnc21
[3]
  AUC(0-inf): 21.2 µM·h
[4]
  Cmax: 1660 nM
[5]
  IC50: 2.1 nM
[6]
  fold change (FC): 4.3
[7]
  Cmax: 7740 nM
[2]
  IC50: 1.6 nM
[8]
  AUC(0-inf): 8.73 µM·h

## Cc1cccnc1C(C)N(CCCCN)Cc1nc2ccccc2[nH]1 (stereo not given)
[1]
  CC50: > 146000 nM
[2]
  IC50: 505 nM

## NCCCCN(Cc1ncccc1O)C1CCCc2cccnc21 (racemic)
[1]
  CC50: 149000 nM
[2]
  IC50: 113 nM

## C[C@@H](c1ccccn1)N(CCCCN)Cc1nc2ccccc2[nH]1
[3]
  AUC(0-inf): 1.7 µM·h
[4]
  Cmax: 180 nM
[5]
  IC50: 2 nM
[6]
  fold change (FC): 5.4
[7]
  Cmax: 1330 nM
[2]
  IC50: 1.4 nM
[8]
  AUC(0-inf): 0.33 µM·h

## CC(c1ccccn1)N(CCCCN)Cc1ncccc1C(C)(C)C (racemic)
[1]
  CC50: 158000 nM
[2]
  IC50: 1.6 nM

## Cc1cc(C)nc(CN(CCCCN)C2CCCc3cccnc32)c1 (racemic)
[1]
  CC50: 149000 nM
[2]
  IC50: 17 nM

## NCCCCN(Cc1ncccc1CO)C1CCCc2cccnc21 (racemic)
[1]
  CC50: 155000 nM
[2]
  IC50: 2.1 nM

## Cc1cccnc1CN(CCCCN)[C@@H](C)c1ccccn1
[3]
  AUC(0-inf): 7.49 µM·h
[4]
  Cmax: 1580 nM
[5]
  IC50: 2.1 nM
[6]
  fold change (FC): 14.2
[2]
  IC50: 1.1 nM
[8]
  AUC(0-inf): 11.2 µM·h

## Cc1ccc(CN(CCCCN)C2CCCc3cccnc32)nc1 (racemic)
[9]
  IC50: 35 nM
[1]
  CC50: 35300 nM
[2]
  IC50: 5.3 nM

## NCCCCN(Cc1nc2ccccc2[nH]1)Cc1ncccc1O
[1]
  CC50: > 149000 nM
[2]
  IC50: > 149000 nM

## NCCCCN(Cc1ncccc1N)C1CCCc2cccnc21 (racemic)
[1]
  CC50: 169000 nM
[2]
  IC50: 19.7 nM

## Cc1cccnc1CN(CCCCN)C1CCCc2cccnc21 (racemic)
[1]
  CC50: 32400 nM
[2]
  IC50: 23.3 nM

## CC(C)(c1ccccn1)N(CCCCN)Cc1nc2ccccc2[nH]1
[1]
  CC50: > 159000 nM
[2]
  IC50: 2500 nM

## NCCCCN(Cc1ncccc1Cl)C1CCCc2cccnc21 (stereo not given)
[1]
  CC50: 191000 nM
[2]
  IC50: 0.4 nM

## Cc1cccnc1CN(CCCCN)C(C)c1ccccn1 (stereo not given)
[1]
  CC50: 45400 nM
[2]
  IC50: 1.1 nM

Source: ChEMBL document CHEMBL1681661, “Design of novel CXCR4 antagonists that are potent inhibitors of T-tropic (X4) HIV-1 replication” (Bioorg Med Chem Lett, 2011)
